The text below walks through data of ChEMBL document CHEMBL4414602, “Bipolaricins A-I, Ophiobolin-Type Tetracyclic Sesterterpenes from a Phytopathogenic Bipolaris sp. Fungus” (J Nat Prod, 2019).

Calls of active or inactive are those of the source. The calls are words filed in the database; no cut-off is given here.

The subject of data set [1] is RAW264.7. The data set can be described thus: Cytotoxicity against mouse RAW264.7 cells at 40 uM by MTT assay. The data set is classed as cell-based. The following applies: raw264.7, 40 µM. (Formazan colour is commonly taken as a measure of viable cells.)
For a further data set, the system named is SW1990. The data set can be described thus: Cytotoxicity against human SW1990 cells by MTT assay. The format is cell-based.
In a further data set the test system is MDA-MB-231. The data set can be described thus: Cytotoxicity against human MDA-MB-231 cells by MTT assay. The format is cell-based.
For data set [2], the system named is RAW264.7. The data set can be described thus: Antiinflammatory activity in mouse RAW264.7 cells assessed as inhibition of LPS-induced nitric oxide production pretreated for 2 hrs followed by LPS challenge and measured after 12 hrs by Griess assay. The format is functional, cell-based. A general note: Nitrite, measured by Griess reagent, commonly stands in for NO production.

A further data set relates to A549. Description: Cytotoxicity against human A549 cells by MTT assay. The data set is classed as cell-based.
The test system of a further data set is HepG2. Description: Cytotoxicity against human HepG2 cells by MTT assay. The data set is classed as cell-based.
Data set [3] concerns the target T1, 3-hydroxy-3-methylglutaryl-coenzyme A reductase (Homo sapiens, UniProt P04035).
T1 sequence (P04035 whole entry): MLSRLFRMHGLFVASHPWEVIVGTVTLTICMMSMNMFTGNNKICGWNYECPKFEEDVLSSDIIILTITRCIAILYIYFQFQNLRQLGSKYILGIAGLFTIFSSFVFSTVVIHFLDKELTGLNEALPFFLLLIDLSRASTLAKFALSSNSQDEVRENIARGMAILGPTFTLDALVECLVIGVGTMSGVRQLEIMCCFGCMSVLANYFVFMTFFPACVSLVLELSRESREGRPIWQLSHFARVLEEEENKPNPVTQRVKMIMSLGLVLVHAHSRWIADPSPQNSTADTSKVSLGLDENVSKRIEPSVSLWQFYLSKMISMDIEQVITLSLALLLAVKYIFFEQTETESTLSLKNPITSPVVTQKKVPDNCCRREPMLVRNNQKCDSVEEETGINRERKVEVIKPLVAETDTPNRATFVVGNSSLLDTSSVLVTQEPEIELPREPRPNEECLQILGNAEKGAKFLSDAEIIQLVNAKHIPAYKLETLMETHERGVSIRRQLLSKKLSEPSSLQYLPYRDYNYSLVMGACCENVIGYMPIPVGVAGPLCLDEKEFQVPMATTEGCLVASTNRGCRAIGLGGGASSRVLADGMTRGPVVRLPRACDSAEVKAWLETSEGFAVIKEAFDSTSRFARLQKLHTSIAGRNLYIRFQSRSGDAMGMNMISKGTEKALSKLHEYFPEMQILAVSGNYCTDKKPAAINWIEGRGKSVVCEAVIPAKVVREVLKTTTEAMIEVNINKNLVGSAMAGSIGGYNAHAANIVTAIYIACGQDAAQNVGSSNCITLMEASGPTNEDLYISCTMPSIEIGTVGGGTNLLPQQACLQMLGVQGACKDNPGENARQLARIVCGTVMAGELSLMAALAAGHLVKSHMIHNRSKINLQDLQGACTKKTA
Description: Inhibition of human HMGR using HMGCoA as substrate measured after 15 mins in presence of NADPH by UV microplate reader analysis.

Data set [4] deals with RAW264.7. The data set can be described thus: Antiinflammatory activity in mouse RAW264.7 cells assessed as increase in LPS-induced HO-1 protein level pretreated for 2 hrs followed by LPS challenge and measured after 12 hrs by Western blot analysis. The format is functional, cell-based. For orientation: In western blotting, separated proteins are transferred to a membrane and probed.

For data set [5], the system named is RAW264.7. The data set can be described thus: Antiinflammatory activity in mouse RAW264.7 cells assessed as inhibition of LPS-induced RANTES production at 5 to 10 uM pretreated for 2 hrs followed by LPS challenge and measured after 12 hrs by ELISA. The format is functional, cell-based.
Data set [6] deals with Transcription factor p65 (Mus musculus) (UniProt Q04207). The data set can be described thus: Inhibition of LPS-induced NF-kappaB p65 translocation in mouse RAW264.7 cells at 5 to 10 uM pretreated for 2 hrs followed by LPS challenge measured after 12 hrs by DAPI staining based fluorescence microscopic analysis. The data set is classed as cell-based.
Data set [7] has as its system RAW264.7. The data set can be described thus: Antiinflammatory activity in mouse RAW264.7 cells assessed as inhibition of LPS-induced IL-1beta production at 5 to 10 uM pretreated for 2 hrs followed by LPS challenge and measured after 12 hrs by ELISA. The format is functional, cell-based.
For data set [8], the system named is RAW264.7. The data set can be described thus: Antiinflammatory activity in mouse RAW264.7 cells assessed as inhibition of LPS-induced MIP-1beta production at 5 to 10 uM pretreated for 2 hrs followed by LPS challenge and measured after 12 hrs by ELISA. The format is functional, cell-based.
In data set [9] the test system is RAW264.7. Description: Antiinflammatory activity in mouse RAW264.7 cells assessed as increase of LPS-induced IL-3 production at 5 to 10 uM pretreated for 2 hrs followed by LPS challenge and measured after 12 hrs by ELISA. The format is functional, cell-based.
In data set [10] the test system is RAW264.7. The data set can be described thus: Antiinflammatory activity in mouse RAW264.7 cells assessed as inhibition of LPS-induced TNFalpha production at 5 to 10 uM pretreated for 2 hrs followed by LPS challenge and measured after 12 hrs by ELISA. The data set is classed as functional, cell-based.

Broadly, the IC50 is the concentration that inhibits the measured activity by half.

Chain of Transcription factor p65 (Mus musculus) (Q04207 whole entry): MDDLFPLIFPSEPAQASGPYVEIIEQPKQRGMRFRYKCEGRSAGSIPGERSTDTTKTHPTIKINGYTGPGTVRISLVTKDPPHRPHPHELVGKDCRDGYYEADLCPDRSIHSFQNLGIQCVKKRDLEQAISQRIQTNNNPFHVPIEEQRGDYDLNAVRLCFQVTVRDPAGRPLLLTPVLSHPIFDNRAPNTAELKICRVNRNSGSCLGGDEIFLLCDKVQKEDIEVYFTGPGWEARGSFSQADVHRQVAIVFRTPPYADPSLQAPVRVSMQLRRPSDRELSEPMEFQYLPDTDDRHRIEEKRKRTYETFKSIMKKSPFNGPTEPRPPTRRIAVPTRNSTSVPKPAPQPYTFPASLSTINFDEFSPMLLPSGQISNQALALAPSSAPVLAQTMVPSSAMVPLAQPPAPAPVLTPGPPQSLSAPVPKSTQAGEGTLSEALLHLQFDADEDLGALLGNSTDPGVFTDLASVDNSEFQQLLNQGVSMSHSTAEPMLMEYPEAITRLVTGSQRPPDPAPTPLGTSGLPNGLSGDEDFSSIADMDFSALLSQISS

With `CC(C)=C[C@H]1C[C@H](C)[C@]2(CC[C@]3(C)C[C@@H]4C(CO)=CC(=O)[C@H]4/C(C)=C\C[C@H]32)O1`, in the data set on RAW264.7 [1], the Activity entry is listed as “Non-Toxic”. The IC50 in the data set with SW1990, in the data set with MDA-MB-231, in the data set on RAW264.7 [2], with A549 and in the data set with HepG2 was more than 40 µM in each case.

For the molecule `CC(C)=C[C@H]1C[C@H](C)[C@]2(CC[C@]3(C)C[C@@H]4C(C)=CC(=O)[C@H]4/C(C=O)=C\C[C@H]32)O1` [3-ANHYDRO-6-EPI-OPHIOBOLIN A], the Activity result was “Non-Toxic” in the data set with RAW264.7 [1] and “Dose-dependent effect” in the data set with RAW264.7 [4]. In addition, the IC50 in the data set with SW1990 is more than 40 µM; with MDA-MB-231, more than 40 µM; in [3], 8.4 µM; in the data set with RAW264.7 [2] it was 5.1 µM; in the data set with A549 it was more than 40 µM; with HepG2, more than 40 µM. In addition, the inhibition entry (in the data set with RAW264.7 [5]; in data set [6]; in the data set with RAW264.7 [7]; in the data set on RAW264.7 [8]; in the data set with RAW264.7 [10]) was “Active” in each case. In addition, in the data set with RAW264.7 [9], the result was Active.

Consider `CC(C)=C[C@H]1C[C@H](C)[C@]2(CC[C@]3(C)C[C@@H]4C(C)=CC(=O)/C4=C(\CO)[C@H](O)C[C@H]32)O1`, for which the Activity entry with RAW264.7 [1] is “Non-Toxic”. In addition, the IC50 is more than 40 µM in the data set with SW1990; more than 40 µM in the data set with MDA-MB-231; 20 µM in the data set with RAW264.7 [2]; more than 40 µM in the data set on A549; more than 40 µM in the data set with HepG2.

`CC1=CC(=O)/C2=C(\CO)[C@@H](O)C[C@@H]3[C@](C)(CC[C@@]34O[C@@H](/C=C(\C)CO)C[C@@H]4C)C[C@H]12`: in the data set with RAW264.7 [1], the Activity result is given as “Non-Toxic”. In addition, the IC50 with SW1990 was more than 40 µM; in the data set with MDA-MB-231, more than 40 µM; with RAW264.7 [2], 19 µM; in the data set on A549, more than 40 µM; with HepG2, more than 40 µM.

For `CC1=CC(=O)/C2=C(\CO)[C@H](O)C[C@@H]3[C@](C)(CC[C@@]34O[C@@H](/C=C(\C)CO)C[C@@H]4C)C[C@H]12`, the Activity result in the data set with RAW264.7 [1] is recorded as “Non-Toxic”. Moreover, the IC50 in the data set on SW1990, in the data set with MDA-MB-231, with RAW264.7 [2], in the data set on A549 and in the data set on HepG2 was more than 40 µM each time.

With `CC(C)=C[C@H]1C[C@H](C)[C@]2(CC[C@]3(C)C[C@@H]4C(C)=CC(=O)/C4=C(\CO)[C@@H](O)C[C@H]32)O1`, the Activity result with RAW264.7 [1] was “Non-Toxic”. The IC50 with SW1990 was more than 40 µM; in the data set with MDA-MB-231 it was more than 40 µM; with RAW264.7 [2] it was 6.7 µM; in the data set with A549, more than 40 µM; in the data set with HepG2 it was more than 40 µM.

`CC(C)=C[C@H]1C[C@H](C)[C@]2(CC[C@]3(C)C[C@@H]4C(C)=CC(=O)/C4=C(\C(=O)O)[C@@H](O)C[C@H]32)O1`: the Activity result in the data set with RAW264.7 [1] is on record as “Non-Toxic”. Besides, the IC50 in the data set on SW1990, in the data set on MDA-MB-231, in the data set with RAW264.7 [2], in the data set with A549 and in the data set on HepG2 was more than 40 µM each time.

As to `CC1=CC(=O)[C@H]2/C(C=O)=C\C[C@@H]3[C@](C)(CC[C@@]34O[C@@H](/C=C(\C)CO)C[C@@H]4C)C[C@H]12`, the Activity entry with RAW264.7 [1] was “Non-Toxic”. The IC50 with SW1990 is more than 40 µM; in the data set with MDA-MB-231, more than 40 µM; in the data set with RAW264.7 [2], 19 µM; in the data set on A549 it was more than 40 µM; with HepG2 it was more than 40 µM.

Take `CC(C)=C[C@H]1C[C@H](C)[C@]2(CC[C@]3(C)C[C@@H]4C(C)=CC(=O)[C@H]4/C(C(=O)O)=C\C[C@H]32)O1`: the Activity result in the data set with RAW264.7 [1] is reported as “Non-Toxic”. Further, the IC50 in the data set on SW1990, with MDA-MB-231, in the data set on RAW264.7 [2], in the data set with A549 and in the data set on HepG2 was more than 40 µM in each case.

On to `CC1=CC(=O)/C2=C(\CO)CC[C@@H]3[C@](C)(CC[C@@]34O[C@@H](/C=C(\C)CO)C[C@@H]4C)C[C@H]12`, for which the Activity entry in the data set with RAW264.7 [1] is reported as “Non-Toxic”. In addition, the IC50 in the data set on SW1990, in the data set on MDA-MB-231, with RAW264.7 [2], with A549 and with HepG2 was more than 40 µM throughout.

As for `COc1ccc2c(c1)c(CC(=O)O)c(C)n2C(=O)c1ccc(Cl)cc1` [INDOMETHACIN], the IC50 with RAW264.7 [2] came out at 8.8 µM.

As for `CC1=CC(=O)[C@H]2/C(C)=C\C[C@@H]3[C@](C)(CC[C@@]34O[C@@H](/C=C(\C)CO)C[C@@H]4C)C[C@H]12`, the Activity result in the data set on RAW264.7 [1] was “Non-Toxic”. The half-inhibitory concentration (IC50) with SW1990, in the data set with MDA-MB-231, in the data set on RAW264.7 [2], with A549 and in the data set on HepG2 was more than 40 µM throughout.

Consider `CC(C)=C[C@H]1C[C@H](C)[C@]2(CC[C@]3(C)C[C@H]4[C@H](CC[C@@]4(C)O)/C(CO)=C\C[C@H]32)O1`, for which the Activity entry with RAW264.7 [1] is given as “Non-Toxic”. The IC50 in the data set on SW1990, with MDA-MB-231, with RAW264.7 [2], with A549 and in the data set on HepG2 was more than 40 µM each time.
